# Results taken from patent US20220218776A1, “COMPOSITION FOR USE IN A METHOD FOR PREVENTION OR TREATMENT OF MALTNUTRITION IN A SUBJECT SUFFERING FROM A CHRONIC INFLAMMATORY BOWEL DISEASES” (SOFAR S.P.A., priority 2019, published 2022).
# Tested on: pro-inflammatory patterns typical of IBD
# Assay: depression of pro-inflammatory patterns typical of IBD
# Conditions: administered alone
# Excerpt: According to an aspect of the invention, the casein (ii) contained in the mixture (M), together with (i), (iii) and (iv) (according to any of the described embodiments), is a micellar casein, i.e. in the native form thereof.
substance,measurement,value
casein,pro-inflammatory patterns typical of IBD,capable of depressing pro-inflammatory patterns typical of IBD
